Assay results as given in publication PMC11284788, “NN1213 – A Potent, Long-Acting, and Selective Analog of Human Amylin” (Journal of Medicinal Chemistry, 2024).
In brackets after ≈: the same amount, converted by molar mass. Where two headings read alike, the source gives them in different places. Numbered stars: 1 amine (or outer) side, 2 acyl side, 3 side chain; on linkers, the order of the positions; unused ones are H or OH. Bridge positions count the residues as written; N and C are the ends. Side chains are listed from the residue outwards. Peptide text beside a SMILES is read from it. * marks the point of attachment. C20 diacid = O=C(O)CCCCCCCCCCCCCCCCCCC(=O)*; γGlu = O=C(O)[C@H](CCC(=O)[*:2])N[*:1]

Key:
hCTR = target: T1, hCTR (Homo sapiens, UniProt P30988); experiment: cAMP-responsive element luciferase reporter assay, human CTR; format: cell-based; conditions: luciferase (human receptor assay)
T1 sequence (P30988 25-474): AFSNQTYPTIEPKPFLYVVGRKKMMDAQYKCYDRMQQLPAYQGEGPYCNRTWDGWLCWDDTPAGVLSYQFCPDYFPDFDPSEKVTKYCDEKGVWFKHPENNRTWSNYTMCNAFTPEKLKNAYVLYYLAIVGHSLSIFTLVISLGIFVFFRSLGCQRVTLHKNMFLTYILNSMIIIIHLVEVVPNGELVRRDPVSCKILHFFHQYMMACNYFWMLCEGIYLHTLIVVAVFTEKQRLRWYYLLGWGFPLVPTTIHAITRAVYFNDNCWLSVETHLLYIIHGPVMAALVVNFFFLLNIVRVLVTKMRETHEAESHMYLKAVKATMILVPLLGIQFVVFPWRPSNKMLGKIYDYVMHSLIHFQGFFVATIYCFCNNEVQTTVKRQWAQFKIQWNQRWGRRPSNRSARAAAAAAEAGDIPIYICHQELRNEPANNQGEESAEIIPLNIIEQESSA

[1] = ThT assay: fibril formation propensity and peptide recovery; format: physicochemical; conditions: for ThT, pH 7.5 lag-time: 250 μM peptide, 10 mM HEPES pH 7.5, 1 μM ThT, 37 °C, 960 rpm, 45 h, lowest of four replicas, average of experiments; for recovery: pH 7.5, residual dissolved peptide after 45 h of shaking, centrifugation and 0.22 μm filtration, HPLC, relative to amount before stress
Procedure: The stability properties of the individual amylin analogs were assessed with respect to their propensity toward fibril formation, expressed as the time until fibril formation (measured as Lag time) and loss of dissolved peptide (assessed as Peptide Recovery). […] Samples were prepared as described previously (using the same methodology and materials) for a novel amylin-based analog candidate compound.[7]
Briefly, each compound was dissolved in 10 mM of glycylglycine buffer (pH 4.0) or HEPES buffer (pH 7.5) to a concentration of 250 μM, followed by ThT stock solution to a final concentration of 1 μM. Each solution was aliquoted into a microtiter plate (200 μL/well) sealed with a transparent adhesive sheet. Mechanical stress was applied at 37 °C incubation (960 rpm, 1 mm amplitude) with 20 min fluorescence reading intervals for 45 h (filters: excitation 444 nm; emission 485 nm). Each peptide was tested in experiments consisting of four replicas (e.g., four wells on the same plate), and the lag time of each replica was determined by visual inspection of the fluorescence-versus-time plot. For wells where no fibril formation could be detected, the lag time was set longer than the test period (>45 h). The lag time of the peptide was set to the lowest lag time of the four replicates (conservative estimate). Some of the peptides were tested in more than one experiment, and the lag time results given in Tables 6 and 9 represent the average of these experiments. The ThT time course data given in Supporting Information represent the average and SEM of each experiment.[40] After analysis, wells representing individual replicas were pooled, and the residual soluble peptide was isolated using centrifugation (20,000 g/30 min at room temperature) followed by […] filtration. The amount of residual dissolved peptide was determined using an HPLC with a flow rate of 2 mL/min at 30 °C and 215/276 nm detection. A gradient combining eluent A (7.7% w/w acetonitrile, 200 mM Na2SO4, 20 mM NaH2PO4, 20 mM Na2HPO4, pH 7.2) and eluent B (65.5% w/w acetonitrile) was applied. The amount of residual dissolved peptide was reported on a relative scale (Peptide Recovery) to the amount of dissolved peptide prior to mechanical stress.

[2] = HMWP content by size-exclusion chromatography; format: physicochemical; conditions: analogs 1–9 (pH 7.5 series); covalent dimers and polymers prior to fibril formation testing, SEC, % of total absorbance area at 215 nm
Procedure: The stability properties of the individual amylin analogs were assessed with respect to their propensity toward amyloid fibril formation. The relative amount of covalent dimers and polymers (HMWP) present prior to fibril formation testing was measured as a control for the potential inhibitory effect of HMWP on fibril formation propensity as reported elsewhere.[39]
Elution was performed under isocratic conditions with the following mobile phase prepared in Milli-Q water (Millipore A/S): 0.5 M NaCl, 10 mM sodium dihydrogen monohydrate, 5 mM ortho-phosphoric acid, 50% (v/v) 2-propanol. The amount of HMWP was determined as the absorbance area of the corresponding peaks given in percentage of the total absorbance area. The molar extinction coefficients of the molecules eluting in the HMWP fraction and the main peak was assumed to be equal.

hAMY3R = target: T2, hAMY3R (Homo sapiens, UniProt O60896+P30988); experiment: cAMP-responsive element luciferase reporter assay, human AMY3R; format: cell-based; set-up: expressed in transfected cells; conditions: for EC50: luciferase (human receptor assay); for ratio hCTR/hAMY3R: ratio of luciferase EC50 values
T2 sequence (P30988 25-474): T1 sequence (P30988 25-474)
T2 sequence (O60896 24-148 partner): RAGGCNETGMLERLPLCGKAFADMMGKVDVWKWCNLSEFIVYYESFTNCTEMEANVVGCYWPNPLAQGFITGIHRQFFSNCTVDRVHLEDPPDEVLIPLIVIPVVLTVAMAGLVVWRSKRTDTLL

[3] = Solubility versus pH profile
[4] = Tables S12 and S14, read-out: hCTR pEC50 (converted)
[5] = BHK cells stably expressing hCTR and CRE-luciferase, 3 h, 37 °C, 10% FBS, read-out: hCTR EC50
[6] = Tables S12 and S14, read-out: hAMY3R pEC50 (converted)
[7] = BHK cells stably expressing hCTR+RAMP3 and CRE-luciferase, 3 h, 37 °C, 10% FBS, read-out: hAMY3R EC50

Row | EC50 (hCTR; [4]) | EC50 (hCTR; [5]) | ThT, pH 7.5 lag-time [1] | recovery [1] | HMWP [2] | EC50 (hAMY3R; [6]) | EC50 (hAMY3R; [7]) | ratio hCTR/hAMY3R (hAMY3R) | solubility kinetic ([3]; bis-tris-propane buffer, pH 6, aqueous buffer) | solubility kinetic ([3]; bis-tris-propane buffer, pH 6.5, aqueous buffer) | solubility kinetic ([3]; bis-tris-propane buffer, pH 7, aqueous buffer) | solubility kinetic ([3]; bis-tris-propane buffer, pH 7.5, aqueous buffer) | solubility kinetic ([3]; bis-tris-propane buffer, pH 8, aqueous buffer) | solubility kinetic ([3]; lactate buffer, pH 4, aqueous buffer) | solubility kinetic ([3]; lactate buffer, pH 5, aqueous buffer) | Structure (SMILES)
1 | 8.32 nM | 8.31 nM | >45 h | 100% | 6% | 1.07 nM | 1.06 nM | 7.8 | – | – | – | – | – | – | – | CC[C@H](C)[C@H](NC(=O)[C@@H]1CCCN1C(=O)CNC(=O)[C@H](Cc1ccccc1)NC(=O)[C@H](CC(N)=O)NC(=O)[C@H](CCC(=O)O)NC(=O)[C@H](CO)NC(=O)[C@H](CO)NC(=O)[C@H](Cc1c[nH]cn1)NC(=O)[C@H](CCCNC(=N)N)NC(=O)[C@H](CC(C)C)NC(=O)[C@H](Cc1ccccc1)NC(=O)[C@H](CC(=O)O)NC(=O)[C@H](C)NC(=O)[C@H](CC(C)C)NC(=O)[C@H](CCCNC(=N)N)NC(=O)[C@H](CCC(N)=O)NC(=O)[C@@H](NC(=O)[C@H](C)NC(=O)[C@@H]1CSSC[C@H](NC(=O)[C@@H](N)CCCCNC(=O)CC[C@H](NC(=O)CC[C@H](NC(=O)CCCCCCCCCCCCCCCCCCC(=O)O)C(=O)O)C(=O)O)C(=O)N[C@@H](CC(N)=O)C(=O)N[C@@H]([C@@H](C)O)C(=O)N[C@@H](C)C(=O)N[C@@H]([C@@H](C)O)C(=O)N1)[C@@H](C)O)C(=O)N[C@@H](CC(C)C)C(=O)N[C@@H](CO)C(=O)N[C@@H](CO)C(=O)N[C@H](C(=O)N1CCC[C@H]1C(=O)N[C@H](C(=O)NCC(=O)N[C@@H](CO)C(=O)N[C@@H](CC(=O)O)C(=O)N[C@H](C(=O)N[C@@H](Cc1ccc(O)cc1)C(N)=O)[C@@H](C)O)C(C)C)[C@@H](C)O [Peptide 9] (H-K([γGlu-γGlu-C20 diacid])CNTATCATQRLADFLRHSSENFGPILSSTPVGSDTY-NH2; disulfide 2-7)
2 | 1.38 nM | 1.37 nM | 0 h | 0% | – | 1.55 nM | 1.54 nM | 0.9 | ≥ 200 µM | 75 µM (≈ 330 µg/mL) | 7 µM (≈ 30.8 µg/mL) | 7 µM (≈ 30.8 µg/mL) | 15 µM (≈ 65.9 µg/mL) | ≥ 200 µM | ≥ 200 µM | CC(C)C[C@H](NC(=O)[C@H](CCCNC(=N)N)NC(=O)[C@H](CCC(N)=O)NC(=O)[C@@H](NC(=O)[C@H](C)NC(=O)[C@@H]1CSSC[C@H](NC(=O)[C@@H](N)CCCCNC(=O)CC[C@H](NC(=O)CCCCCCCCCCCCCCCCCCC(=O)O)C(=O)O)C(=O)N[C@@H](CC(N)=O)C(=O)N[C@@H]([C@@H](C)O)C(=O)N[C@@H](C)C(=O)N[C@@H]([C@@H](C)O)C(=O)N1)[C@@H](C)O)C(=O)N[C@@H](C)C(=O)N[C@@H](CC(=O)O)C(=O)N[C@@H](Cc1ccccc1)C(=O)N[C@@H](CC(C)C)C(=O)N[C@@H](CCCNC(=N)N)C(=O)N[C@@H](Cc1c[nH]cn1)C(=O)N[C@@H](CO)C(=O)N[C@@H](CO)C(=O)N[C@@H](CCC(N)=O)C(=O)N[C@@H](CC(N)=O)C(=O)N[C@@H](Cc1ccccc1)C(=O)NCC(=O)N[C@@H](C)C(=O)N1CCC[C@H]1C(=O)N[C@@H](CC(C)C)C(=O)N[C@@H](CO)C(=O)N[C@@H](CO)C(=O)N[C@H](C(=O)N[C@@H](CC(N)=O)C(=O)N[C@H](C(=O)NCC(=O)N[C@@H](CO)C(=O)N1CCC[C@H]1C(=O)N[C@H](C(=O)N[C@@H](Cc1ccc(O)cc1)C(N)=O)[C@@H](C)O)C(C)C)[C@@H](C)O [Peptide 2] (H-K([γGlu-C20 diacid])CNTATCATQRLADFLRHSSQNFGAPLSSTNVGSPTY-NH2; disulfide 2-7)
3 | 2.19 nM | 2.19 nM | >45 h | 100% | 2.5% | 0.389 nM | 0.39 nM | 5.6 | – | – | – | – | – | – | – | CC[C@H](C)[C@H](NC(=O)[C@H](C)NC(=O)CNC(=O)[C@H](Cc1ccccc1)NC(=O)[C@@H]1CCCN1C(=O)[C@H](CC(N)=O)NC(=O)[C@H](CO)NC(=O)[C@H](CO)NC(=O)[C@H](Cc1c[nH]cn1)NC(=O)[C@H](CCCNC(=N)N)NC(=O)[C@H](CC(C)C)NC(=O)[C@H](Cc1ccccc1)NC(=O)[C@H](CC(=O)O)NC(=O)[C@H](C)NC(=O)[C@H](CC(C)C)NC(=O)[C@H](CCCNC(=N)N)NC(=O)[C@H](CCC(N)=O)NC(=O)[C@@H](NC(=O)[C@H](C)NC(=O)[C@@H]1CSSC[C@H](NC(=O)[C@@H](N)CCCCNC(=O)CC[C@H](NC(=O)CC[C@H](NC(=O)CCCCCCCCCCCCCCCCCCC(=O)O)C(=O)O)C(=O)O)C(=O)N[C@@H](CC(N)=O)C(=O)N[C@@H]([C@@H](C)O)C(=O)N[C@@H](C)C(=O)N[C@@H]([C@@H](C)O)C(=O)N1)[C@@H](C)O)C(=O)N1CCC[C@H]1C(=O)N[C@@H](CO)C(=O)N[C@@H](CO)C(=O)N[C@H](C(=O)N[C@@H](CC(N)=O)C(=O)N[C@H](C(=O)NCC(=O)N[C@@H](CO)C(=O)N[C@@H](CC(=O)O)C(=O)N[C@H](C(=O)N[C@@H](Cc1ccc(O)cc1)C(N)=O)[C@@H](C)O)C(C)C)[C@@H](C)O [Peptide 8] (H-K([γGlu-γGlu-C20 diacid])CNTATCATQRLADFLRHSSNPFGAIPSSTNVGSDTY-NH2; disulfide 2-7)
